Here are results for 31 compounds from US7741479B2, “Urea inhibitors of MAP kinases” (Locus Pharmaceuticals, Inc., priority 2004, dated 2010).

The experiment concerns the target T1, p38 (Homo sapiens, UniProt Q16539).
T1 construct: made in house
The experiment in a line: Protein Kinase Assay (33P incorporation from γ-[33P]ATP into GST-ATF-2 substrate). The experiment is classed as biochemical. The conditions noted are these: for inhibition at 10 µM: compound at 10 μM. As for the experimental part:
Human non-activated p38 kinase (MW=43 kDa) was purified according to the protocol described herein. Chemicals were purchased from Calbiochem. Fluorescence characterizations were conducted using a Cary Eclipse (Varian Analytical Instruments, Walnut Creek, Calif.). Research-grade CM5 sensor chips and coupling reagents (N-ethyl-N′-dimethylaminopropylcarbodiimide (EDC) N-hydroxysuccinimide (NHS), and 1 M ethanolamine HCl, pH 8.5) were purchased from Biacore AB (Uppsala, Sweden). The biosensor analyses were conducted using a Biacore 3000 SPR instrument. The kinetic analyses were carried on a Molecular Devices spectrophotometer (Molecular Devices Corporation, CA, USA).
Protein Kinase Assay. The protein kinase activity of p38 was determined by measuring the incorporation of ^33P from γ-[^33P]ATP into the GST-ATF-2 substrate, amino acids 19-96 (Upstate, NY USA). […] Compounds were preincubated with 10 nM p38 for 20 min at 30° C.; the reactions were initiated by the addition of GST-ATF2 and ATP and incubated for 70 min at 30° C. before being stopped by the addition of 10 μL of 600 mM phosphoric acid. The phosphorylated substrate was captured on phosphocellulose 96-well plate (Millipore MAPHNOB 10), washed with 100 mM phosphoric acid, and counted in a BeckmenCoulter LS6500 liquid scintillation counter.

What is called inhibition is the relative decrease from the control value, in per cent. Higher therefore signals a strong effect.

T1 sequence (Q16539 whole entry): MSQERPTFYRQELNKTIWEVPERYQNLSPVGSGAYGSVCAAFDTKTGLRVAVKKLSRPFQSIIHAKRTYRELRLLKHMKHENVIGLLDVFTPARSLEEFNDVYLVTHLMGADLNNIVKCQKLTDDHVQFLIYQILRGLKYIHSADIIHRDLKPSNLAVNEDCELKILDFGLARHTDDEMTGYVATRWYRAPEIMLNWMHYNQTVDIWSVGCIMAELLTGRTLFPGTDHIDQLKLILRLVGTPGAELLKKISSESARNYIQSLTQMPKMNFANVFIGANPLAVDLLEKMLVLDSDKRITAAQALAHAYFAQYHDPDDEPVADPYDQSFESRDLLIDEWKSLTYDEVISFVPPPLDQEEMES

`CC(C)(C)c1cc(C(=O)N2CCS(=O)(=O)CC2)c(NC(=O)Nc2ccc(Cl)cc2)s1` [Example 1, 1-[5-tert-butyl-3-(1,1-dioxo-1λ^6-thiomorpholine-4-carbonyl)thiophen-2-yl]-3-(4-chlorophenyl)urea]: the inhibition at 10 µM lay in the range of 76 to 100%.
Same read-out and setting: the value for `CC(C)(C)c1cc(C(=O)N2CCS(=O)(=O)CC2)c(NC(=O)Nc2cccc3ccccc23)s1` [Example 2, 1-[5-tert-butyl-3-(1,1-dioxo-1λ^6-thiomorpholine-4-carbonyl)thiophen-2-yl]-3-naphthalen-1-ylurea] was 76 to 100%; that for `CC(C)(C)c1cc(CN2CCS(=O)(=O)CC2)c(NC(=O)Nc2ccc(Cl)cc2)s1` [Example 3, 1-[5-tert-butyl-3-(1,1-dioxo-1λ^6-thiomorpholin-4-ylmethyl)thiophen-2-yl]-3-(4-chlorophenyl)urea] was 76 to 100%.
In the case of `CC(C)(C)c1cc(C(=O)N2CCS(=O)(=O)CC2)c(NC(=O)Nc2ccc3ccccc3c2)s1` [Example 4, 1-[5-tert-butyl-3-(1,1-dioxo-1λ^6-thiomorpholine-4-carbonyl)thiophen-2-yl]-3-naphthalen-2-ylurea], the inhibition at 10 µM fell in the range of 76 to 100%.
Same read-out and setting: the value for `CC(C)(C)c1cc(CN2CCS(=O)(=O)CC2)c(NC(=O)Nc2cccc3ccccc23)s1` [Example 5, 1-[5-tert-butyl-3-(1,1-dioxo-1λ^6-thiomorpholin-4-ylmethyl)thiophen-2-yl]-3-naphthalen-1-ylurea] was 76 to 100%.
The same measure, in the same setting: with `CC(C)(C)c1cc(CN2CCS(=O)(=O)CC2)c(NC(=O)Nc2ccc3ccccc3c2)s1` [Example 6, 1-[5-tert-butyl-3-(1,1-dioxo-1λ^6-thiomorpholin-4-ylmethyl)thiophen-2-yl]-3-naphthalen-2-ylurea] the figure was 76 to 100%; with `CC(C)(C)c1cc(NC(=O)Nc2ccc(Cl)cc2)n(CC(=O)N2CCS(=O)(=O)CC2)n1` [Example 7, 1-{5-tert-butyl-2-[2-(1,1-dioxo-1λ^6-thiomorpholin-4-yl)-2-oxoethyl]-2H-pyrazol-3-yl}-3-(4-chlorophenyl)urea], 51 to 75%.
The same measure, in the same setting: the value for `CC(C)(C)c1cc(NC(=O)Nc2cccc3ccccc23)n(CC(=O)N2CCS(=O)(=O)CC2)n1` [Example 9, 1-{5-tert-butyl-2-[2-(1,1-dioxo-1λ^6-thiomorpholin-4-yl)-2-oxoethyl]-2H-pyrazol-3-yl}-3-naphthalen-1-ylurea] was 51 to 75%; that for `CC(C)(C)c1cc(NC(=O)Nc2ccc(Cl)cc2)c(C(=O)N2CCS(=O)(=O)CC2)s1` [Example 10, 1-[5-tert-butyl-2-(1,1-dioxo-1λ^6-thiomorpholine-4-carbonyl)thiophen-3-yl]-3-(4-chlorophenyl)urea] was 76 to 100%; that for `CC(C)(C)c1cc(NC(=O)Nc2cccc3ccccc23)c(C(=O)N2CCS(=O)(=O)CC2)s1` [Example 11, 1-[5-tert-butyl-2-(1,1-dioxo-1λ^6-thiomorpholine-4-carbonyl)thiophen-3-yl]-3-naphthalen-1-ylurea] was 76 to 100%.
In the case of `CC(C)(C)c1cc(NC(=O)Nc2ccc3ccccc3c2)c(C(=O)N2CCS(=O)(=O)CC2)s1` [Example 12, 1-[5-tert-butyl-2-(1,1-dioxo-1λ^6-thiomorpholine-4-carbonyl)thiophen-3-yl]-3-naphthalen-2-ylurea], the inhibition at 10 µM is 76 to 100%.
As to `CC(C)(C)c1cc(NC(=O)Nc2ccc3ccccc3c2)c(CN2CCS(=O)(=O)CC2)s1` [Example 13, 1-[5-tert-butyl-2-(1,1-dioxo-1λ^6-thiomorpholin-4-ylmethyl)thiophen-3-yl]-3-naphthalen-2-ylurea], the inhibition at 10 µM lay in the range of 26 to 50%.
Still for that read-out and setting: the value for `CC(C)(C)c1cc(NC(=O)Nc2cccc3ccccc23)c(CN2CCS(=O)(=O)CC2)s1` [Example 14, 1-[5-tert-butyl-2-(1,1-dioxo-1λ^6-thiomorpholin-4-ylmethyl)thiophen-3-yl]-3-naphthalen-1-ylurea] was 0 to 25%; that for `CC(C)(C)c1cc(NC(=O)Nc2ccc(Cl)cc2)c(CN2CCS(=O)(=O)CC2)s1` [Example 15, 1-[5-tert-butyl-2-(1,1-dioxo-1λ^6-thiomorpholin-4-ylmethyl)thiophen-3-yl]-3-(4-chlorophenyl)urea] was 51 to 75%.
On the same count and under the same terms, with `CC(C)(C)c1cc(C(=O)N2CCOCC2)c(NC(=O)Nc2cccc3ccccc23)s1` [Example 16, 1-[5-tert-butyl-3-(morpholine-4-carbonyl)thiophen-2-yl]-3-naphthalen-1-yl-urea] the figure was 26 to 50%; with `CC(C)(C)c1cc(NC(=O)Nc2ccc(Cl)cc2)n(C(=O)N2CCS(=O)(=O)CC2)n1` [Example 17, 1-[5-tert-butyl-2-(1,1-dioxo-1λ^6-thiomorpholine-4-carbonyl)-2H-pyrazol-3-yl]-3-(4-chlorophenyl)urea], 76 to 100%.
The compound `CC(C)(C)c1cc(C(=O)N2CCSCC2)c(NC(=O)Nc2cccc3ccccc23)s1` [Example 18, 1-[5-tert-butyl-3-(thiomorpholine-4-carbonyl)thiophen-2-yl]-3-naphthalen-1-ylurea] displayed an inhibition at 10 µM of 51 to 75%.
Same read-out and setting: the value for `CC(C)(C)c1cc(CN2CCOCC2)c(NC(=O)Nc2cccc3ccccc23)s1` [Example 19, 1-(5-tert-butyl-3-morpholin-4-ylmethylthiophen-2-yl)-3-naphthalen-1-ylurea] was 51 to 75%.
Compound `CC(C)(C)c1cc(CN2CCSCC2)c(NC(=O)Nc2cccc3ccccc23)s1` [Example 20, 1-(5-tert-butyl-3-thiomorpholin-4-ylmethylthiophen-2-yl)-3-naphthalen-1-yl-urea] registered an inhibition at 10 µM of 0 to 25%.
The same measure, in the same setting: the value for `CC(C)(C)c1cc(NC(=O)Nc2cccc3ccccc23)n(C(=O)N2CCS(=O)(=O)CC2)n1` [Example 21, 1-[5-tert-butyl-2-(1,1-dioxo-1λ^6-thiomorpholine-4-carbonyl)-2H-pyrazol-3-yl]-3-naphthalen-1-ylurea] was 76 to 100%; that for `CC(C)(C)c1cc(C(=O)N2CC[S+]([O-])CC2)c(NC(=O)Nc2cccc3ccccc23)s1` [Example 22, 1-[5-tert-butyl-3-(1-oxo-1λ^4-thiomorpholine-4-carbonyl)thiophen-2-yl]-3-naphthalen-1-ylurea] was 26 to 50%; that for `CC(C)(C)c1cc(NC(=O)Nc2ccc3ccccc3c2)n(C(=O)N2CCS(=O)(=O)CC2)n1` [Example 23, 1-[5-tert-butyl-2-(1,1-dioxo-1λ^6-thiomorpholine-4-carbonyl)-2H-pyrazol-3-yl]-3-naphthalen-2-ylurea] was 26 to 50%.
Same read-out and setting: with `CC(C)(C)c1nc(C(=O)N2CCS(=O)(=O)CC2)c(NC(=O)Nc2cccc3ccccc23)s1` [Example 25, 1-[2-tert-butyl-4-(1,1-dioxo-1λ^6-thiomorpholine-4-carbonyl)thiazol-5-yl]-3-naphthalen-1-ylurea] the figure was 76 to 100%; with `CC(C)(C)c1nc(C(=O)N2CCS(=O)(=O)CC2)c(NC(=O)Nc2ccc3ccccc3c2)s1` [Example 26, 1-[2-tert-butyl-4-(1,1-dioxo-1λ^6-thiomorpholine-4-carbonyl)thiazol-5-yl]-3-naphthalen-2-ylurea], 51 to 75%.
With `CC(C)(C)c1cc(NC(=O)Nc2ccc3ccccc3c2)c(N2CCS(=O)(=O)CC2)s1` [Example 27, 1-[5-tert-butyl-2-(1,1-dioxo-1λ^6-thiomorpholin-4-yl)thiophen-3-yl]-3-naphthalen-2-ylurea], the inhibition at 0.5 µM (compound at 0.5 μM (noted beside the value in Table 1)) was 51 to 76%.
Compound `CC(C)(C)c1cc(C(=O)N2CCS(=O)(=O)CC2)c(NC(=O)Nc2ccc(Oc3ccccc3)cc2)s1` [Example 28, 1-[5-tert-butyl-3-(1,1-dioxo-1λ^6-thiomorpholine-4-carbonyl)thiophen-2-yl]-3-(4-phenoxyphenyl)urea] returned an inhibition at 10 µM of 0 to 25%.
The same measure, in the same setting: the value for `CC(C)(C)c1cc(C(=O)N2CCS(=O)(=O)CC2)c(NC(=O)Nc2cccc3cccnc23)s1` [Example 29, 1-[5-tert-butyl-3-(1,1-dioxo-1λ^6-thiomorpholine-4-carbonyl)thiophen-2-yl]-3-quinolin-8-ylurea] was 0 to 25%; that for `CC(C)(C)c1cc(C(=O)N2CCS(=O)(=O)CC2)c(NC(=O)NC2CCc3ccccc32)s1` (stereo not shown) [Example 30, 1-[5-tert-butyl-3-(1,1-dioxo-1λ^6-thiomorpholine-4-carbonyl)thiophen-2-yl]-3-indan-1-ylurea] was 51 to 75%; that for `CC(C)(C)c1cc(C(=O)N2CCS(=O)(=O)CC2)c(NC(=O)Nc2ccnc3ccccc23)s1` [Example 31, 1-[5-tert-butyl-3-(1,1-dioxo-1λ^6-thiomorpholine-4-carbonyl)thiophen-2-yl]-3-quinolin-4-ylurea] was 51 to 75%.
On the same count and under the same terms, with `CC(C)(C)c1cc(C(=O)N2CCS(=O)(=O)CC2)c(NC(=O)Nc2cccc3cn[nH]c23)s1` [Example 32, 1-[5-tert-butyl-3-(1,1-dioxo-1λ^6-thiomorpholine-4-carbonyl)thiophen-2-yl]-3-(1H-indazol-7-yl)urea] the figure was 26 to 50%; with `CC(C)(C)c1cc(C(=O)N2CCS(=O)(=O)CC2)c(NC(=O)Nc2ccc3c(c2)NC(=O)CC3)s1` [Example 33, 1-[5-tert-butyl-3-(1,1-dioxo-1λ^6-thiomorpholine-4-carbonyl)thiophen-2-yl]-3-(2-oxo-1,2,3,4-tetrahydroquinolin-7-yl)urea], 0 to 25%.
